Laboratory results taken from patent US20180296531A1, “STIMULATION OF 11B-HSD2 EXPRESSION TO IMPROVE HORMONAL THERAPY OF STEROID-DEPENDENT DISEASE” (THE CLEVELAND CLINIC FOUNDATION, priority 2015, published 2018).

Legend:
[1] = target: T1, 11β-HSD2 (Homo sapiens, UniProt P80365); test: Direct 11β-HSD2 antagonism: cortisol to cortisone conversion in LAPC4 cells transfected with 11β-HSD2 vector; assay type: cell-based; conditions: LAPC4 transfected with 11β-HSD2 vector, [3H]-cortisol 100 nM
T1 construct: FLAG; expressed in transfected cells; host or cells: LAPC4
T1 sequence (P80365 1-405): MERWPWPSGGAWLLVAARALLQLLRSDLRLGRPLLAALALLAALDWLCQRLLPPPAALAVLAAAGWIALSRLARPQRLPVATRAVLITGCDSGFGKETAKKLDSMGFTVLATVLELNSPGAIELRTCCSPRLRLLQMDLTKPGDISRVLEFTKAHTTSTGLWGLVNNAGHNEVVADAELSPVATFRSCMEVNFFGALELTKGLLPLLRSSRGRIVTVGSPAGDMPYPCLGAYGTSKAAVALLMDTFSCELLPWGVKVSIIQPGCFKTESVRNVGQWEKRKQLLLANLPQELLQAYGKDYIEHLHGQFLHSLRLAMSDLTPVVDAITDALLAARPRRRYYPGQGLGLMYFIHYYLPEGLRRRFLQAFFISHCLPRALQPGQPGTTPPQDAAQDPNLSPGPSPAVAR
Description: Gene expression. The day before transfection, LAPC4 cells were plated into 12 well plates coated with poly-DL-ornithine (˜7×10^5 cells/well). On the day of transfections, an Erlin-2 expressing plasmid, Erlin-2-Myc-DDK-tagged (OriGene) or 11β-HSD2-expressing plasmid FCIV1-11β-HSD2-FLAG was introduced into the cells with Lipofectamine® 3000 Reagent (Life Technology). After 48 hours, the cells were collected and used for the detection of 11β-HSD2 and Erlin-2 by immunoblot, or treated with Enz for 24 hours to determine the effects on cortisol metabolism by HPLC as described herein.

[2] = system: AR-regulated transcripts; test: qPCR of AR-regulated transcripts; assay type: cell-based, human; conditions: LAPC4, 24 hours
Description: LAPC4 cells were treated with Enz for 36 days and then seeded into 12 well plates coated with poly-DL-ornithine at 50% confluence. After incubation overnight, the cells were transfected with 11β-HSD2-FLAG plasmid for 48 hours by using the TranslT®-2020 Transfection Reagent (Mirus) according to the protocol provided by the manufacturer, then maintained in phenol-red-free medium with 5% Charcoal:Dextran-stripped FBS for 48 hours before being treated with the indicated drugs. Total RNA was extracted with a GenElute Mammalian Total RNA miniprep kit (Sigma-Aldrich) and 1 μg RNA was reverse-transcribed to cDNA with the iScript cDNA Synthesis Kit (Bio-Rad). An ABI 7500 Real-Time PCR machine (Applied Biosystems) was used to perform the qPCR analysis, using iTaq Fast SYBR Green Supermix with ROX (Bio-Rad) in 96-well plates at a final reaction volume of 10 μl. The qPCR analysis was carried out in triplicate with suitable primers. Each mRNA transcript was quantitated by normalizing the sample values to RPLP0 and to vehicle treated cells (for steroid treated cells). All gene expression studies were repeated in independent experiments.

[3] = system: AMFR; test: Immunoblot of AMFR; assay type: cell-based, human; conditions: enzalutamide treatment, LAPC4 cells and patient tissues
Description: For protein analysis, immunoblots were performed as described previously. Li et al., J Clin Endocrinol Metab 98, E1189-1197 (2013). Briefly, total cellular protein was extracted with ice cold RIPA lysis buffer (Sigma-Aldrich) containing protease inhibitors (Roche). 30-50 μg protein was separated by 8% SDS-PAGE gel and then transferred to a nitrocellulose membrane (Millipore). After incubating with the anti-11β-HSD2 antibody (Santa Cruz; 1:3000), anti-11β-HSD1 antibody (Santa Cruz; 1:1000), GR antibody (BD Biosciences; 1:1000), anti-Erlin-2 antibody (Cell Signaling Technology: 1:1000) or anti-AMFR antibody (Proteintech; 1:1000) overnight at 4° C., the appropriate secondary antibody was incubated for 1 hour at room temperature. The chemiluminescent detection system (Thermo Scientific) was used to detect the bands with peroxidase activity. An anti-β-actin antibody (Sigma-Aldrich; 1:5000) was used as a control for sample loading.

SMILES: CNC(=O)c1ccc(N2C(=S)N(c3ccc(C#N)c(C(F)(F)F)c3)C(=O)C2(C)C)cc1F [enzalutamide]
- direct 11β-HSD2 antagonism [1]: no direct 11β-HSD2 antagonism
- expression of AR-regulated genes [2]: suppression of AR-regulated genes
- AMFR expression [3]: did not consistently increase AMFR expression
